According to the Kinase Knowledgebase extract (Sharma et al. 2016):

Target: PIK3CA (human) (UniProt P42336)
Experiment: Assessment of PIK3CA Kinase Activity

Chain of PIK3CA (human) (P42336 whole entry, looked up): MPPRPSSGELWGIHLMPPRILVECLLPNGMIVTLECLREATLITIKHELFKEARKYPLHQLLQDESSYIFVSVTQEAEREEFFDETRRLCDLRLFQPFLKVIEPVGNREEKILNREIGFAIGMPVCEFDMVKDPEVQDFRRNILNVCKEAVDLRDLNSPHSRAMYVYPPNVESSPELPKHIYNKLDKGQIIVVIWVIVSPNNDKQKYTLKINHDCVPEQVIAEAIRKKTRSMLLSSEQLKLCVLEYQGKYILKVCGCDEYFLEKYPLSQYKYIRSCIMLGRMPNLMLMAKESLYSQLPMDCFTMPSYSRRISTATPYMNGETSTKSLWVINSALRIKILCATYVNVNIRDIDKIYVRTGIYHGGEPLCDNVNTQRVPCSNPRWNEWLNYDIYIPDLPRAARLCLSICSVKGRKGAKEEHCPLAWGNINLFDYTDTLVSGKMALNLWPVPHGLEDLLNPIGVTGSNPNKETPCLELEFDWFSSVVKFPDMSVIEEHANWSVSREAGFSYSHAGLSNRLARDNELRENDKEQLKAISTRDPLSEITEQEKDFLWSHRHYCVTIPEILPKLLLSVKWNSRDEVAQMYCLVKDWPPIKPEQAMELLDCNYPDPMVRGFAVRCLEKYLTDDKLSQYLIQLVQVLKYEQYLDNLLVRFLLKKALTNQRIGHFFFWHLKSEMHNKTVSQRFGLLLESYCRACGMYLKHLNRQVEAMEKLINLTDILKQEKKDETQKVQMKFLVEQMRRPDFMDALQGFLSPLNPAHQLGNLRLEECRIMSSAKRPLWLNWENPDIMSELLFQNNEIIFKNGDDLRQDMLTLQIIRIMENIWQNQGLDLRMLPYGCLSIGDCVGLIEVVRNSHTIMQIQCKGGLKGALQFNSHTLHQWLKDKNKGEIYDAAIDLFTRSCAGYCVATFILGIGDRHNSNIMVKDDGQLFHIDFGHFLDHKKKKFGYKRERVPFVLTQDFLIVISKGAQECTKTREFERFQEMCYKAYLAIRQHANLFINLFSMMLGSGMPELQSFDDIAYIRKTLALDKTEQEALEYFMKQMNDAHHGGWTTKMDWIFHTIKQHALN

Row | SMILES | IC50 [nM]
1 | CC(C)n1ncnc1-c1cn2c(n1)-c1cnc(N[C@H](C)C(N)=O)cc1OCC2 | < 1000
2 | CNC(=O)CN1CC(c2ccc3c(c2)OCCn2cc(-c4ncnn4C(C)C)nc2-3)C1 | < 1000
3 | CC(C)N1CC(NC(=O)c2ccc3c(c2)-n2nc(-c4ncnn4C(C)C)cc2CCO3)C1 | < 1000
4 | CC(C)n1ncnc1-c1cn2c(n1)-c1ccc(O[C@@H](CCO)C(N)=O)cc1OCC2 | < 1000
5 | Cc1nc(-c2cn3c(n2)-c2ccc(Br)cc2OCC3)n(C(C)C)n1 | < 1000
6 | Oc1ccc2c(c1)OCCn1cc(-c3ncnn3CC(F)(F)F)nc1-2 | < 1000
7 | CC(C)n1ncnc1-c1cn2c(n1)-c1cnc(OC(C)(C)C(N)=O)cc1OCC2 | < 1000
8 | Fc1ccc(-n2ncnc2-c2cn3c(n2)-c2cnc(NCCCn4ccnc4)cc2OCC3)c(F)c1 | < 1000
9 | CC(C)n1ncnc1-c1cn2c(n1)-c1ccc(C3=C(C(N)=O)CN(C)CC3)cc1OCC2 | < 1000
10 | CC(C)N1CCN(C(=O)c2ccc3c(c2)-c2nc(-c4ncnn4CC(F)(F)F)cn2CCO3)CC1 | < 1000
11 | COc1ccc(CNc2cc3c(cn2)-c2nc(-c4ncnn4CC(F)(F)F)cn2CCO3)cc1OC | < 1000
12 | Cc1nc(-c2cn3c(n2)-c2cnc(N4CCC[C@H]4C(N)=O)cc2OCC3)n(CC(F)(F)F)n1 | < 1000
13 | Cc1nc(-c2cn3c(n2)-c2ccc(-c4cnn(CCN5CCOCC5)c4)cc2OCC3)n(C(C)C)n1 | < 1000
14 | C[C@@H]1CN(C(=O)c2ccc3c(c2)-c2nc(-c4ncnn4CC(F)(F)F)cn2CCO3)C[C@H](C)N1 | < 1000
15 | Cc1nc(-c2cn3c(n2)-c2ccc(OC(C)C)cc2OCC3)n(C(C)C)n1 | < 1000
16 | Clc1ccc(-c2ccc3c(c2)-c2nc(-c4ncnn4-c4ccccc4Cl)cn2CCO3)cc1 | < 1000
17 | CNC(=O)[C@@H]1CCCN1c1cc2c(cn1)-c1nc(-c3ncnn3C(C)C)cn1CCO2 | < 1000
18 | NC(=O)[C@@H]1CCCN1c1cc2c(cn1)-c1nc(-c3ncnn3-c3ccc(F)cc3F)cn1CCO2 | < 1000
19 | CC(C)n1ncnc1-c1cn2c(n1)-c1ccc(C3CN(CCS(=O)(=O)N(C)C)C3)cc1OCC2 | < 1000
20 | CC(C)n1ncnc1-c1cn2c(n1)-c1ccc(CN(C)C(N)=O)cc1OCC2 | < 1000
21 | CC(C)n1ncnc1-c1cn2c(n1)-c1ccc(C3CCN(CC(=O)N(C)C)CC3O)cc1OCC2 (configuration not stated) | < 1000
22 | Cc1nc(-c2cn3c(n2)-c2ccc(C4CCN(CC(=O)N(C)C)CC4)cc2OCC3)n(C(C)C)n1 | < 1000
23 | CC(C)n1ncnc1-c1cn2c(n1)-c1cc(NCC(O)CO)ncc1OCC2 (configuration not stated) | < 1000
24 | Cc1nc(-c2cn3c(n2)-c2ccc(C#N)cc2OCC3)n(C(C)C)n1 | < 1000
25 | CNc1cc2c(cn1)-c1nc(-c3ncnn3C(C)C)cn1CCO2 | < 1000
26 | Cc1cn(C(C)C)c(-c2cn3c(n2)-c2ccc(-c4cnn(CC(C)(C)O)c4)cc2OCC3)n1 | < 1000
27 | CC(C)n1ncnc1-c1cn2c(n1)-c1cnc(N3CC[C@H](O)[C@H]3C(N)=O)cc1OCC2 | < 1000
